Like-named read-outs stand apart in the source and are kept apart here. One block for each compound: values may come before it.
Experiments:
immobilized lysozyme [1] = biological target: T1, immobilized lysozyme (Gallus gallus, UniProt P00698); experiment: affinity chromatography on immobilized lysozyme (agarose gel), fluorescamine detection; format: binding; conditions: for binding by the affinity column: solubilized in water; for binding by the immobilized lysozyme: 25 ppm in water, eluted with 10 mM sodium citrate buffer, pH 4.0
Description: This example illustrates an affinity chromatography method for the removal of aminoglycosides from biological fluids either for purification of the aminoglycoside or purification of the fluid by removal of aminoglycosides. Lysozyme and α-lactalbumin are immobilized using Affi-Gel 10® (N-hydroxysuccinimide ester agarose gel). A 1 ml aliquot of Affi-Gel 10® is transferred to a 5 ml disposable column, the solvent is drained, and the gel is washed with 3 bed volumes of cold (4° C.) distilled, deionized water. A 2 ml aliquot of lysozyme, 25 mg/ml in 0.1M 3-(n-morpholino)-propanesulphonic acid buffer (MOPS), pH 7.0, is added to the gel within 10 minutes of the water wash. The column is capped, contents mixed to form a uniform suspension, and incubated at 4° C. for 4 hour on a rotator. After incubation, the effluent is collected to determine unbound protein using the BCA® (Bicinchoninic acid, Pierce, Rockford, IL.) method. The remaining active sites on the agarose support are blocked by incubating 1 ml of 0.1M ethylene diamine (in 0.1M MOPS, pH 7.0) with agarose support for 1 hour at 4° C. on a rotator. The gel is washed with MOPS to remove any unbound material (OD280nm =0). α-lactalbumin is solubilized in 0.1M MOPS, 80 mM calcium chloride, pH 7.0 and is immobilized on Affi-Gel® using the same procedure described above for lysozyme.
Affinity columns are prepared by adding 1 ml of agarose gel containing immobilized enzyme to 5 ml disposable columns and draining the solvent. The gel is washed with three bed volumes of cold (4° C.) distilled, deionized water. The immobilized lysozyme is activated by washing the gel with 2 ml of 0.1M NaOH at a flow rate of 1 ml/min followed by 4 bed volumes of cold (4° C.) distilled, deionized water to remove NaOH. […] Aqueous solutions of Hygromycin B, concentrations of 1-100 ppm in distilled deionized water, are applied to the affinity columns and allowed to flow by gravity at approximately 1 ml/min. The flow through was collected to determine the amount of unbound hygromycin B. The columns are washed using four 1.0 ml aliquots of water followed by four 1.0 ml aliquots of 10 mM sodium citrate buffer, pH 4.0. The fluorescence of all fractions are determined as described below. Approximately 29 mg of lysozyme (approximately 53% immobilization efficiency; n=12) and 18 mg of α-lactalbumin (approximately 36% immobilization efficiency; n=7) are immobilized per ml of agarose gel using a 4 hour incubation time.
Aminoglycosides can be detected by fluorescence derivatization using fluorescamine (De Silva et al, Anal. Chem., Vol. 47, 714-718, 1975, herein incorporated by reference). The fluorescence assay has a detection limit of 5 ppm for hygromycin B in citrate. […] The affinity column also binds neomycin B, gentamicin, streptomycin, and dihydrostreptomycin. The fluorescence is detected using a Perkin Elmer luminescence spectrometer at an excitation of 395 nm and an emission of 485 nm. In some cases, TLC analysis (Medina et al, IN Residues of Veterinary Drugs in Food, Haagsma et al ED., Proc. EuroResidue II Conference, Veldhoven, The Netherlands, May 3-5, 1993; J. Chromatography, Vol. 663, 127-135, 1995, both herein incorporated by reference) is performed using the eluate from the affinity columns. The solvent is evaporated from the eluates, the samples reconstituted 1:1 using 95% ethanol, and applied to a Whatman LHK-PD silica gel plate with preabsorbant zones (10×10 cm; 9 lanes). The gel plate is developed for approximately 20 minutes with acetone/ethanol/ammonium hydroxide; 1:1:1, dried in a vacuum oven, cooled to room temperature, and dipped for approximately 4 seconds in 0.02% fluorescamine (acetone/hexane; 1:14). The plate is dried, sprayed lightly with 0.2M sodium citrate buffer, pH 3.0-5.0, with optimal signal at approximately pH 4.0, and the fluorescent bands are detected using an ultraviolet light box at a wavelength of 365 nm. […]

[2] = biological target: T2, immobilized α-lactalbumin (Bos taurus, UniProt P00711); experiment: affinity chromatography on immobilized α-lactalbumin (agarose gel), fluorescamine detection; format: binding
T2 sequence (P00711 20-142): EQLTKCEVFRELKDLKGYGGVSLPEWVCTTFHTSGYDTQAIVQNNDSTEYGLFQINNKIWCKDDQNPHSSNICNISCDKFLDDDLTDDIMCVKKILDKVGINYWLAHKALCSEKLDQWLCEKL
Description: This example illustrates an affinity chromatography method for the removal of aminoglycosides from biological fluids either for purification of the aminoglycoside or purification of the fluid by removal of aminoglycosides. Lysozyme and α-lactalbumin are immobilized using Affi-Gel 10® (N-hydroxysuccinimide ester agarose gel). A 1 ml aliquot of Affi-Gel 10® is transferred to a 5 ml disposable column, the solvent is drained, and the gel is washed with 3 bed volumes of cold (4° C.) distilled, deionized water. A 2 ml aliquot of lysozyme, 25 mg/ml in 0.1M 3-(n-morpholino)-propanesulphonic acid buffer (MOPS), pH 7.0, is added to the gel within 10 minutes of the water wash. The column is capped, contents mixed to form a uniform suspension, and incubated at 4° C. for 4 hour on a rotator. […]
Affinity columns are prepared by adding 1 ml of agarose gel containing immobilized enzyme to 5 ml disposable columns and draining the solvent. […] The fluorescence of all fractions are determined as described below. […]
Aminoglycosides can be detected by fluorescence derivatization using fluorescamine (De Silva et al, Anal. Chem., Vol. 47, 714-718, 1975, herein incorporated by reference). The fluorescence assay has a detection limit of 5 ppm for hygromycin B in citrate. […] The fluorescence is detected using a Perkin Elmer luminescence spectrometer at an excitation of 395 nm and an emission of 485 nm. […]

immobilized rat albumin = immobilized rat albumin (Rattus norvegicus, UniProt P02770); experiment: binding by immobilized rat albumin (preliminary results)
immobilized lysozyme [3] = biological target: T1, immobilized lysozyme; experiment: affinity chromatography on immobilized lysozyme (agarose gel), fluorescamine detection; format: binding; conditions: in adulterated biological fluids, without prior deionization
lysozyme = lysozyme (Gallus gallus, UniProt P00698); experiment: competitive binding assay, spectinomycin-FITC tracer and latex lysozyme-particles (particle concentration fluorescent assay); conditions: for displacement or competition for the binding sites (bound spectinomycin-FITC): spectinomycin-FITC 4.9 ng and 2.45 ng
Description: This example illustrates the development of an aminoglycoside competitive binding assay using spectinomycin as the test aminoglycoside to confirm the presence of aminoglycosides in aqueous tissue extracts. Lysozyme is immobilized onto latex particles using the following method. Carboxylated latex particles are dispersed by sonication, 10 pulses of 75% duty cycle using power 3. Aliquots of 0.2 ml particles are transferred into 10 ml conical polypropylene tubes. The carboxyls are activated by adding 150 mg N-ethyl-N^3 (3-dimethylaminopropyl)-carbodiimide hydrochloride (EDC) and allowed to stand for approximately 15-20 minutes at approximately room temperature. Two ml of 0.1 mg/ml lysozyme in pH 7, 0.1M phosphate buffer is heated at […] for approximately 30 minutes and then is added to the activated particles drop by drop while mixing gently. The mixture is incubated at 37° C. for approximately 1.5 hours. The derivatized latex (latex-lysozyme) is centrifuged at approximately 8225×g (approximately 10,000 rpm) for approximately 5 minutes at approximately 4° C. The supernatant is assayed for protein content and compared with initial protein concentration using a Biorad protein assay. The latex-lysozyme is washed twice with 2 ml of pH 7 phosphate buffer and centrifuged at approximately 3,000×g for approximately 10 minutes. Four ml of phosphate buffer containing 0.1% sodium azide and 0.015% Brij surfactant is added to the latex lysozyme and the mixture is sonicated with 10 pulses prior to storage at 4° C.
To prepare the label for the assay, spectinomycin base (0.01 mM) and FITC (0.02 mM) are dissolved separately in 0.5 ml of 10 mM dibasic phosphate buffer adjusted to pH 8.8 with 10 mM monobasic phosphate buffer. The mixture is mixed gently for 2 hours at room temperature prior to storage at 4° C. The labeling is carried out in brown vials or in tubes wrapped with aluminum foil to prevent photodegradation of the fluorescent compounds. Dilutions are made such that 20 μl contains approximately 5 ng spectinomycin-FITC. Completion of derivatization is screened by thin layer chromatography using 10 ml of developing solvent, methanol:chloroform:acetone:ammonium hydroxide in a ratio of 3:3:3:1. The reaction mixture is diluted in distilled water, 1:100, and applied in 1 μl quantities to TLC plates and developed for approximately 10 minutes in a 118 ml capacity round glass bottle. The derivatized compound is compared to a 0.1 μM FITC sample. […]
Binding and competition interactions are assessed using lysozyme-particles containing 0.6 pg protein in 10 μl. […] In the 2-step saturation binding assay, the displacement of the bound spectinomycin-FITC is determined by adding unlabeled spectinomycin, 20 μl of 100 ng/ml, after the 30 minute incubation with spectinomycin-FITC. […]

[4] = cited from earlier work

Compound: CN[C@@H]1C[C@H](N)[C@@H](O)[C@H](O[C@H]2O[C@H](CO)[C@H](O)[C@@H]3O[C@@]4(O[C@@H]23)O[C@H]([C@H](N)CO)[C@H](O)[C@H](O)[C@H]4O)[C@H]1O [Hygromycin B]
binding by the affinity column (immobilized lysozyme [1]; 10 ppm (5 ml)): completely bound
binding by the immobilized lysozyme (immobilized lysozyme [1]): completely bound
binding by the affinity column (immobilized lysozyme [1]; 60 ppm (10 ml)): completely bound
binding capacity (immobilized lysozyme [1]; immobilized lysozyme): 0.5 mg per ml of affinity gel
difference in binding capacity, lysozyme vs α-lactalbumin (immobilized lysozyme [1]; per ml of affinity gel): 5 fold
binding capacity ([2]; immobilized α-lactalbumin): 0.1 mg per ml of affinity gel
binding by immobilized rat albumin (immobilized rat albumin): binding
binding to immobilized lysozyme (immobilized lysozyme [3]): does not bind

binding to the lysozyme affinity column (qualitative) (immobilized lysozyme [1]): binds
Compound: CN[C@@H]1[C@H](O[C@H]2[C@H](O[C@H]3[C@H](O)[C@@H](O)[C@H](NC(=N)N)[C@@H](O)[C@@H]3NC(=N)N)O[C@@H](C)[C@]2(O)CO)O[C@@H](CO)[C@H](O)[C@H]1O [dihydrostreptomycin]

Compound: NC[C@@H]1O[C@H](O[C@H]2[C@@H](O)[C@H](O[C@@H]3[C@@H](O)[C@H](N)C[C@H](N)[C@H]3O[C@H]3O[C@H](CN)[C@@H](O)[C@H](O)[C@H]3N)O[C@@H]2CO)[C@H](N)[C@@H](O)[C@@H]1O [neomycin B]
binding to the lysozyme affinity column (qualitative) (immobilized lysozyme [1]): binds
binding by the immobilized lysozyme (immobilized lysozyme [1]): completely bound

displacement or competition for the binding sites (bound spectinomycin-FITC) (lysozyme; 1-step equilibrium assay, 20 ng unlabeled spectinomycin): 34%
competition of unlabeled drug for the binding sites (lysozyme; 1-step equilibrium assay, dilute spectinomycin-FITC (1.22 ng)): 78%
displacement or competition for the binding sites (bound spectinomycin-FITC) (lysozyme; 2-step assay, 20 ng unlabeled spectinomycin added): 96%
displacement of bound spectinomycin-FITC (lysozyme; 2-step assay, dilute spectinomycin-FITC (1.22 ng)): not displaced
Compound: CN[C@@H]1[C@H](O)[C@H](NC)[C@H]2O[C@@]3(O)C(=O)C[C@@H](C)O[C@H]3O[C@@H]2[C@H]1O [spectinomycin]

Compound: [H]/N=C(/N)N[C@H]1[C@H](O)[C@@H](O)[C@H](O[C@@H]2O[C@@H](C)[C@](O)(C=O)[C@H]2O[C@@H]2O[C@@H](CO)[C@H](O)[C@@H](O)[C@@H]2NC)[C@@H](N/C(N)=N\[H])[C@@H]1O [streptomycin]
binding to the lysozyme affinity column (qualitative) (immobilized lysozyme [1]): binds

Compound: Neomycin
loss of activity of residues in eggs ([4]; eggs): 25%
loss of activity of residues in eggs ([4]; frying eggs): little or no loss of activity
loss of activity of residues in eggs ([4]; soft boiling and hard boiling): little or no loss of activity

Compound: gentamicin
binding to the lysozyme affinity column (qualitative) (immobilized lysozyme [1]): binds
binding by the immobilized lysozyme (immobilized lysozyme [1]): completely bound
binding by immobilized α-lactalbumin (qualitative) ([2]; FIG. 4): incomplete binding
